Laboratory results published in US5912230A, “Anti-fungal and anti-bacterial histatin-based peptides” (priority 1998, dated 1999).
Where no end group is shown, it is not given here.

Experiments:
[1] = tested on: Porphyromonas gingivalis strain A7A1-28; experiment: microdilution bacteriostatic assay (P. gingivalis growth inhibition); assay type: cell-based
Experimental: (a) The bacteria used in one investigation, Porphyromonas gingivalis strain A7A1-28, is a typical key pathogenic organism associated with destructive periodontal diseases. The bacteria were multiply subcultured in Enriched Todd Hewitt broth (ETHB, Difco Lab., Detroit, Mich.). Microorganisms were stored in the same broths containing 20% and 50% glycerol, at -20° C. and -70° C., respectively. These served as stock cultures from which all preparations originated.
Working stock cultures were maintained by weekly transfer to Brain Heart Infusion Anaerobic Sheep Blood Agar plates (BHIA, Becton Dickinson and Co., Cockeysville, Md.), and Trypticase Soy Anaerobic Sheep Blood Agar plates (TSA, Becton Dickinson and Co., Cockeysville, Md.). Plates were incubated for 3 to 4 days under strictly anaerobic conditions. For the bacteriostatic assay, bacteria were collected from plates, inoculated into the aforementioned broth and grown at 37° C., under strictly anaerobic conditions for 24 to 48 hours.
A modification of the typical microdilution assay (Rotilie et al., 1975) for the determination of minimal inhibitory concentration (MIC) of antimicrobial agents was utilized to investigate the bacteriostatic activity of the peptides. A standardized bacterial inoculum (P. gingivalis) was exposed to serially diluted antimicrobial peptides in an enriched broth medium that was suitable for the growth of anaerobic bacteria. The test was adapted for use in the 96-well microtiter plates. […] The modification introduced here was based on the spectrophotometric reading of the microtiter plate after incubation.
Microorganisms from cultures maintained in the aforementioned plates were inoculated into 5 ml of the above-mentioned broths and cultured overnight at 37° C. under strictly anaerobic conditions with continuous agitation on a minishaker (IKA-Labortechnik, Staufen i. Br., Germany). The bacteria were grown until reaching the late log phase and were then suspended in the same broths to an optical density (O.D.) of 0.1 at 560 nm. The peptides were diluted in 0.01M phosphate buffered saline (PBS), pH 7. Forty μl aliquots of peptide dilutions were added in each well of a U-bottom microtiter plate (Costar, Cambridge, Mass.) to give final concentrations of 2000, 1000, 500 and 250 μM. Twenty μl of bacterial inoculum was added to all the wells. Finally, 100 μl of the suitable broth were added to each well. The optical density of the wells of the microtiter plate was determined using a microplate reader set at 550 nm and the plate was then incubated under strictly anaerobic conditions for 24 hours. Controls were made by replacing the peptide dilutions with PBS alone. After the incubation, the mixtures in each well were mixed manually to resuspend sedimented bacteria and the plate was read again. The experiments were conducted twice every time. The biologic activity was calculated according to the formula:
100-[[(Fin ODexp-In ODexp)/(Fin ODctr-In ODctr)]×100]
In addition, the % increase in time to reach midlog phase growth was calculated.
The data presentation represent the means (±SEM) of at least 2 separate experiments.

[2] = tested on: P. gingivalis hemagglutination of erythrocytes; experiment: histatin peptide inhibition of hemagglutination assay; assay type: cell-based, Porphyromonas gingivalis; details: 2 hours at room temperature, visual examination
Experimental: The P. gingivalis strain of Section C.(1) was also used for the hemagglutination assays. The bacterial growth and culture conditions were also the same as those described in Section C.(1).
A classic assay was utilized to determine the hemagglutination potential of the P. gingivalis strain. Microorganisms were inoculated into BFB broth and cultured overnight, for approximately 24 hours at 37° C. under strictly anaerobic conditions with continuous agitation on a minishaker (IKA-Labortechnik, Staufen i. Br., Germany). The bacteria were harvested by centrifugatin at 3,000 r.p.m. for 20 min, at 4° C., washed twice in 0.01M phosphate buffered saline (PBS), pH 7.4, and suspended in the same buffer to an optical density of 1.0 at 550 nm. […] One ml of blood was drawn each time, washed twice in PBS at 1,000 r.p.m. for 10 min at 4° C. and suspended in the same buffer at a 2% (v/v) final concentration. Fifty μl of the bacterial suspension were serially diluted in PBS (two-fold steps) in a 96-well U-bottom microplate (Costar, Cambridge, Mass.). Fifty μl of the erythrocyte suspension were added to each well. Controls without bacteria or erythrocytes were included. The microplate was slightly shaken and incubated at room temperature for 2 hours. Visible examination on a white background was used to determine hemagglutination. The amount of hemagglutination was rated as none,(-), moderate (+/-), or strong (+). Erythrocytes in control wells with PBS precipitated to the center of the well, whereas erythrocyte-bacteria aggregates precipitated at the periphery of the bottom. The hemagglutination titer was expressed as the reciprocal of the highest dilution of the bacterial suspension providing visible hemagglutination.
Preparation of erythrocyte and bacterial suspensions were the same as for the hemagglutination assay. Fifty μl of histatin peptide solutions were diluted in PBS in a U-bottom microplate, at various two-fold concentrations with 600 nmole/ml being the highest. The bacterial concentration utilized was normally twice the minimal concentration which gave strong hemagglutination. Equal volumes of the bacterial suspension were poured into the wells containing the histatin peptides. Finally, 50 μl of erythrocyte suspension were added in each well. The microplate was slightly shaken and incubated at room temperature for 2 hours. Controls were made by replacement of the peptide dilutions with PBS only. The experiments were conducted at least twice. The lowest histatin peptide concentration without hemagglutination (complete inhibition) was determined upon visual examination. The highest final histatin peptide concentration utilized was 100 nmole/ml.

[3] = tested on: C. albicans blastoconidia; details: blastoconidia, 1 h at 37° C., pH 7.4
Description: C. albicans is a dimorphic yeast. It can exist in a yeast or blastoconidial form, which upon germination develops into the hyphal or germinated form. While the germinated form is considered to be more invasive, most of the C. albicans isolates harvested from the oral cavities of healthy individuals appear to be in the blastoconidial form. (Arendorf, T. M. et al. (1980), Arch. Oral Biol. 25:1-10; Gow, N.A.R. et al. (1987), Criti. Rev. Microbiol. 15:73-78; Odds, F. C. (1988), Candida and Candidosis, 2nd ed., Bailliere Tindall, London, England). Anti-fungal activity of synthetic histatin 5, histatin-based peptide 113, peptides based on portions of the amino acid sequences of histatin-based peptide 113 and peptides derived from histatin-based peptide 113 with specified amino acid substitutions was measured in assays designed to test the effectiveness of the peptides against the blastoconidia form of Candida (Table 1). These assays, which measure killing of blastoconidia of C. albicans, are described in Xu et al., which is herein incorporated by reference. (Xu, T. et al. (1991), Infect. Immun. 59(8):2549-2554).
A well-described strain of C. albicans was used in the bioassay. This strain, ATCC 44505, was originally isolated from the human oral cavity. Cultures were stored at 4° C. on Sabouraud dextrose agar plates (Difco Laboratories, Detroit, Mich.) until use. Stationary phase growth cells were obtained following growth at 30° C. for 18 h on Sabouraud dextrose agar plates. Colonies were harvested and suspended in 10 mM potassium phosphate buffer (PPB), pH 7.4.
To initiate log phase growth, an aliquot of stock C. albicans was suspended in Sabouraud dextrose broth (Difco) and incubated at 30° C. in a shaking water bath. The growth phase was determined by taking aliquots of the culture at one hour intervals to monitor the optical density (O.D.) at 560 nm. […] Log phase cells were harvested and utilized in the blastoconidia killing assay in a manner identical to that described for stationary phase cells. A final concentration of 10^5 cells/ml (either stationary or log phase fungus) was used in all assays.
The standard suspension buffer utilized in the blastospore killing assay was 0.01M PPB, pH 7.4. An alternate suspension buffer, N-2-hydroxyethylpiperazine-N'-2-ethanesulfonic acids (HEPES; Sigma Chemical Co., St. Louis, Mo.), pH 7.4, can also be utilized.
a. For the killing of blastoconidia assay, 50 μl aliquots of cells (2×10^5 cells/ml) diluted in suspension buffer were allowed to attach to a polystyrene 96-well micro-titer plate (COSTAR, Cambridge, Mass.) for 15 min at room temperature, and then incubated with an equal volume of a histatin or histatin peptide in suspension buffer for 1 h at 37° C. Controls were carried out in the absence of the histatin or histatin peptide. After incubation, wells were washed three times by centrifugation at 1,000 xg for 5 min and covered with aliquots of molten Sabouraud dextrose broth (Difco) containing 2% agarose (Sigma) at 45° C. The plate was then incubated at 30° C. for 8 h. Under such conditions, live cells will divide and begin to form colonies, while dead cells will remain as single cells. To determine the percentage of blastoconidia killed, a total of 100 single cells and/or colonies were counted under a Nikon inverted microscope at 400× magnification and the extent of killing was calculated using the formula: [1-(number of colonies in treated sample)/(number of colonies in control)]×100%.
Data were obtained by calculating the mean and standard deviation from triplicate assays.

Clostripain = target: T1, Clostripain (Hathewaya histolytica, UniProt P09870); experiment: clostripain assay (BAPNA hydrolysis); assay type: biochemical, Clostridium histolyticum; details: read-out: Clostripain: IC50 (μM) for inhibition of Clostripain
T1 construct: purchased Sigma Chemical Corp., St. Louis, Mo
Experimental: Clostripain from Clostridium histolyticum (Sigma Chemical Corp., St. Louis, Mo.) was dissolved in deionized water to a concentration of 1 mg/mL (300 units/mg) and activated with the addition of 10 mmol/L DTT. To measure its hydrolytic activity, clostripain (6 units) was added to […] Hepes buffer, pH 7.5, containing 80 gmol/L BAPNA (benzoyl-arginine-p-nitroanilide), together with 5.6 μmol/L of histatin peptide inhibitor. As controls, assays were performed in the absence of any histatin peptide inhibitor. The activity was monitored continuously at 405 nm using a Molecular Devices VMax microtitre plate reader. The activities were determined from the maximum rates of substrate hydrolysis. Assays were done in duplicate, and the means normalized to the controls.

T1 sequence (P09870 191-526): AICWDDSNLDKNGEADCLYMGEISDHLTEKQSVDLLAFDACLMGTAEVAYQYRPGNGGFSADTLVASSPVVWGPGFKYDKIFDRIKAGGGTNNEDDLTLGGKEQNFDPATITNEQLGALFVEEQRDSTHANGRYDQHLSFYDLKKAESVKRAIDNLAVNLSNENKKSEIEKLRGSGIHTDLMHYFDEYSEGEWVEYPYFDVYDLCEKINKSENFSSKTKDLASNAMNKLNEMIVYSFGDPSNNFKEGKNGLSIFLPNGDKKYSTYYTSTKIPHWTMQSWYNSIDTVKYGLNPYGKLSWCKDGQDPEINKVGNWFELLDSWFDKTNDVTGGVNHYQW
T1 sequence (P09870 51-181): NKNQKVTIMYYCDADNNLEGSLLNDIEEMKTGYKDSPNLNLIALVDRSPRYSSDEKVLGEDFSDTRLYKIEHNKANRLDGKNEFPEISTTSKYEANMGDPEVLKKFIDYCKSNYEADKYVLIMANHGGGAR

In the case of KRHHGYKRKFHEKHHSHR [peptide 103], the “P. gingivalis: % increase in time to reach mid logphase growth (0.2 OD)” value ([1]; 2 mM dose) is reported as 56.6%, the “Hemagglutination: lowest dose (μM) at which hemagglutination was observed using P. Gingivalis” value (“Hemagglutination … using P. Gingivalis” below) [2] is reported as 1.56 µM and the “C. albicans: LD50 (μM) for % killing” value [3] is reported as 4.5 µM.

KRHHGYKRKFHEKHH [peptide 105] was tested, and the “P. gingivalis: % inhibition at 500 μM dose (scoring)” value ([1]; 500 μM dose, highest response seen used in the scoring) was “+++ (+++50-80%)”, the “Hemagglutination … using P. Gingivalis” value [2] was 6.25 µM and the “C. albicans: LD50 (μM) for % killing” value [3] was 5.0 µM.

With KRHHGYKRKFHEKHHSHRGYR [peptide 101] the “Hemagglutination … using P. Gingivalis” value [2] was 1.56 µM and the “C. albicans: LD50 (μM) for % killing” value [3] was 3.5 µM.

In the case of `C[C@H](NC(=O)[C@H](Cc1c[nH]cn1)NC(=O)[C@H](CO)NC(=O)[C@@H](N)CC(=O)O)C(=O)N[C@@H](CCCCN)C(=O)N[C@@H](CCCNC(=N)N)C(=O)N[C@@H](Cc1c[nH]cn1)C(=O)N[C@@H](Cc1c[nH]cn1)C(=O)NCC(=O)N[C@@H](Cc1ccc(O)cc1)C(=O)N[C@@H](CCCCN)C(=O)N[C@@H](CCCNC(=N)N)C(=O)N[C@@H](CCCCN)C(=O)N[C@@H](Cc1ccccc1)C(=O)N[C@@H](Cc1c[nH]cn1)C(=O)N[C@@H](CCC(=O)O)C(=O)N[C@@H](CCCCN)C(=O)N[C@@H](Cc1c[nH]cn1)C(=O)N[C@@H](Cc1c[nH]cn1)C(=O)N[C@@H](CO)C(=O)N[C@@H](Cc1c[nH]cn1)C(=O)N[C@@H](CCCNC(=N)N)C(=O)NCC(=O)N[C@@H](Cc1ccc(O)cc1)C(=O)O` [SynHis5, reference compound], the “C. albicans: LD50 (μM) for % killing” value [3] is reported as 3.0 µM and the IC50 (Clostripain) is reported as less than 6.2 µM.
